Experiment [1] has as its system Coxsackievirus type A-21 (CAV-21). Put plainly: Anticoxsackieviral cell culture assay, CAV-21. In kind it is cell-based. Particulars: 48 h, Strain CAV-21, H1-HeLa cells, two days, XTT, read-out: EC50. As for the experimental part:
Coxsackievirus types A-21 (CAV-21) and B3 (CVB-3) were purchased from American Type Culture Collection (ATCC, Rockville, Md.). Virus stocks were propagated and antiviral assays were performed in H1-HeLa cells (ATCC). Cells were grown in minimal essential medium with 10% fetal bovine serum (Life Technologies, Gaithersburg, Md.).
The ability of compounds to protect cells against either CAV-21 or CVB-3 infection was measured by the XTT dye reduction method. This method is described in Weislow et al., J. Natl. Cancer Inst. 1989, vol. 81, 577-586. H1-HeLa cells were infected with CAV-21 or CVB-3 at a multiplicity of infection (m.o.i.) of 0.025 or 0.075, respectively, or mock-infected with medium only. H1-HeLa cells were plated at 4×10^4 cells per well in a 96-well plate and incubated with appropriate concentrations of the test compound. One day (CVB-3) or two days (CAV-21) later, XTT/PMS was added to test plates and the amount of formazan produced was quantified spectrophotometrically at 450/650 nm. The EC50 was calculated as the concentration of compound that increased the formazan production in compound-treated, virus-infected cells to 50% of that produced by compound-free, uninfected cells. The 50% cytotoxic dose (CC50) was calculated as the concentration of compound that decreased formazan production in compound-treated, uninfected cells to 50% of that produced in compound-free, uninfected cells. The therapeutic index TI) was calculated by dividing the CC50 by the EC50.
The compounds were tested against control compounds WIN 54954 (obtained from Sterling-Winthrop Pharmaceuticals), Pirodavir (obtained from Janssen Pharmaceuticals), and Pleconaril (prepared according to Diana et al., J. Med. Chem. 1995, 38, 1355).

Experiment [2] relates to HRV (89). Nature of the experiment: Antirhinoviral H1-HeLa cell culture assay, HRV serotype 89. The format is cell-based, human rhinovirus. Conditions: Human rhinovirus sp., H1-HeLa cells, XTT. An outline of the steps: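 XTT cell-protection assay in H1-HeLa cells infected with rhinovirus or mock-infected, then incubated with compound for two days; formazan was read at 450/650 nm. EC50 is the concentration restoring infected-cell formazan to 50% of compound-free mock-infected cells; CC50 is the concentration halving formazan in mock-infected cells.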
(In general: Formazan colour is commonly taken as a measure of viable cells.)

In experiment [3] the test system is HRV (38). Nature of the experiment: Antirhinoviral H1-HeLa cell culture assay, HRV serotype 38. Conditions: Human rhinovirus sp., H1-HeLa cells, XTT. The format is cell-based. On the procedure:
(§1) In this cell protection assay, the ability of compounds to protect cells against HRV infection was measured by the XTT dye reduction method, which is described in Weislow et al., J. Natl. Cancer Inst. 1989, vol. 81, 577-586.
H1-HeLa cells were infected with HRV-14 at a multiplicity of infection (m.o.i.) of 0.13 (virus particles/cell) or mock-infected with medium only. Infected or mock-infected cells were resuspended at 8×10^5 cells per mL, and incubated with appropriate concentrations of the compounds to be tested. Two days later, XTT/PMS was added to test plates and the amount of formazan produced was quantified spectrophotometrically at 450/650 nm. The EC50 value was calculated as the concentration of compound that increased the percentage of formazan production in compound-treated, virus-infected cells to 50% of that produced by compound-free, mock-infected cells. The 50% cytotoxic dose (CC50) was calculated as the concentration of compound that decreased the percentage of formazan produced in compound-treated, mock-infected cells to 50% of that produced by compound-free, mock-infected cells. The therapeutic index (TI) was calculated by dividing the CC50 value by the EC50 value. […]

Experiment [4] deals with HRV (39). Put plainly: Antirhinoviral H1-HeLa cell culture assay, HRV serotype 39. Particulars: Human rhinovirus sp., H1-HeLa cells, XTT. In kind it is cell-based, human rhinovirus. On the procedure: as §1
H1-HeLa cells were infected with HRV-14 at a multiplicity of infection (m.o.i.) of 0.13 (virus particles/cell) or mock-infected with medium only. Infected or mock-infected cells were resuspended at 8×10^5 cells per mL, and incubated with appropriate concentrations of the compounds to be tested. Two days later, XTT/PMS was added to test plates and the amount of formazan produced was quantified spectrophotometrically at 450/650 nm. The EC50 value was calculated as the concentration of compound that increased the percentage of formazan production in compound-treated, virus-infected cells to 50% of that produced by compound-free, mock-infected cells. The 50% cytotoxic dose (CC50) was calculated as the concentration of compound that decreased the percentage of formazan produced in compound-treated, mock-infected cells to 50% of that produced by compound-free, mock-infected cells. The therapeutic index (TI) was calculated by dividing the CC50 value by the EC50 value.
All strains of human rhinovirus (HRV) for use in this assay were purchased from American Type Culture Collection (ATCC), except for HRV serotype-14 (produced from the infectious cDNA clone constructed by Dr. Robert Rueckert, Institute for Molecular Virology, University of Wisconsin, Madison, Wis.). HRV stocks were propagated and viral assays were performed in H1-HeLa cells (ATCC). Cells were grown in minimal essential medium with 10% fetal bovine serum, available from Life Technologies (Gaithersburg, Md.).
The compounds were tested against control compounds WIN 51711, WIN 52084, and WIN 54954 (obtained from Sterling-Winthrop Pharmaceuticals), Pirodavir (obtained from Janssen Pharmaceuticals), and Pleconaril (prepared according to the method described in Diana et al., J. Med. Chem 1995, vol. 38, 1355). […]

Results on 1 molecule are retold here after patent US20060046966A1, “Antipicornaviral compounds and compositions, their pharmaceutical uses, and materials for their synthesis” (Agouron Pharmaceuticals, Inc., priority 1998, published 2006).

One may read the EC50 as the concentration giving half of the maximal effect. On to `CCOC(=O)/C=C/[C@H](C[C@@H]1CCNC1=O)NC(=O)[C@@H](CC(=O)[C@@H](NC(=O)c1cc(C)on1)C(C)C)Cc1ccc(F)cc1` [Compound B-2, Ethyl-3-{(5′-Methylisoxazole-3′-carbonyl)-L-ValΨ(COCH2)-L-(4-F-Phe)-L-((S)-Pyrrol-Ala)}-E-Propenoate], for which the concentration giving a half-maximal response (EC50) came to 160 nM in experiment [1], 9 nM in experiment [2], 70 nM in experiment [3] and 50 nM in experiment [4].
